US7605280B2, “Anthraquinone and its derivatives” (Biostatus Limited, priority 1998, dated 2009)
Where two headings read alike, the source gives them in different places. One block for each compound: values may come before it.

Experiments:
[1] = Spectral analysis: absorbance and fluorescence spectra; assay type: physicochemical; details: DNA binding buffer, emission 530 nm
Method: Absorbance spectra were obtained using a Perkin-Elmer Lambda 16 UV spectrometer and a 10 μM solution of agent dissolved in dichloromethane and measured in a 1 cm path length quartz-silica cuvette. Fluorescence spectra for a 0.8 ml solution of 20 μM DRAQ5 in a 1 cm path length semi-micro quartz silica cuvette were determined by exciting at 647 nm wavelength or monitoring emission at 670 nm wavelength. Fluorescence measurements were made on a Perkin Elmer LS50 spectrofluorometer with slit widths set at 10 nm. The spectrofluorometer was equipped with a red-sensitive photomultiplier tube (PMT; type R928; Hamamatsu Photonics KK, Japan). Data were accumulated for four scans for each condition and exported into a spreadsheet program to correct values for the buffer control and to determine emission maxima. DNA-DRAQ5 fluorescence was measured by the addition of microlitre volumes of concentrated calf thymus DNA solutions to the cuvette with mixing. Both agent and DNA were prepared in DNA binding buffer (0.05 M sodium phosphate, pH 6.2, 0.05 M NaCl, 0.001 M EDTA; 3). The spectra shown were corrected for the buffer background and not for the spectral sensitivity of the PMT. Rhodamine 123 spectra were generated in DNA binding buffer using either 488/5 nm excitation or monitoring emission at 530/5 nm. […]

[2] = previously published spectra, normalised; cited from earlier work
[3] = tested on: human B cell lymphoma cell line; experiment: Dual laser flow cytometry of DRAQ5NO with Annexin V-FITC (Cytometer D); assay type: cell-based; details: 50 μM DRAQ5NO, 633 nm excitation, FL4-H
Description: The system was a FACS Vantage cell sorter (Becton Dickinson Inc., Cowley, UK) incorporating a Coherent Enterprise II laser simultaneously emitting at multiline UV (350-360 nm range) and 488 nm wavelengths with the beams made non-colinear using dichroic separators. Beam-combining optics were used to align the UV beam with that emitted by a Spectra Physics 127-35 helium-neon laser (max 35 mW output) emitting at 633 nm with a temporal separation of about 25 μsec from that of the primary 488 nm beam. Forward light scatter, 90° light scatter and fluorescence emissions were collected for 1×10^4 cells using the forward light scatter parameter as the master signal from the primary 488 nm beam, while side scatter was collected through a 488/10 nm bandpass filter. The analysis optics were: i) primary beam-originating signals analysed at FL1 (FITC filter; barrier filter of 530/30 nm) after transmission at SP610 and SP560 dichroics, or at FL2 (barrier filters of 585/42 nm or 575/26 nm) after transmission at SP610 and reflection at SP560 dichroics, or at FL3 (barrier filter of LP715 nm) after reflection at a SP610 dichroic; ii) delayed beam-originating signals analysed at FL4 (barrier filter of LP695 nm) or at FL5 (barrier filter of DF424/44 nm) after transmission or reflection at a LP640 dichroic respectively. Forward and 90° light scatter, were analysed to exclude any cell debris. […]

Exλmax [1]: 511 nm
Compound: rhodamine 123

Compound: Texas Red
Exλmax [2]: 596 nm

Compound: fluorescein isothiocyanate [FITC]
Exλmax [2]: 490 nm

Compound: C[N+](C)([O-])CCNc1ccc(O)c2c1C(=O)c1c(O)ccc(NCC[N+](C)(C)[O-])c1C2=O [DRAQ5N]
level of DRAQ5NO staining in stage 1 populations (intact viable cells) [3]: low level
level of DRAQ5NO staining in stage 3 cells (late stage apoptotic/dead cells) [3]: increased level
